Measured values reported in PubChem BioAssay (NCI).
In brackets after ≈: the same amount, converted by molar mass.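 Tested at 5 concentrations; 48 h exposure; 96-well plates; endpoints linearly interpolated, else capped at highest concentration. The concentration for 50% growth inhibition is given as GI50. TGI denotes the concentration required for complete inhibition of growth.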 Where a SMILES comes first, the peptide text is derived from it.

Key:
Test in all cases: inhibition of tumour cell growth, NCI panel, 48 h
A549 NSCLC = system: A549 NSCLC
OVCAR-5 ovarian = system: OVCAR-5 ovarian
HL-60(TB) leukemia = system: HL-60(TB) leukemia
T-47D breast = system: T-47D breast
CCRF-CEM leukemia = system: CCRF-CEM leukemia
HOP-92 NSCLC = system: HOP-92 NSCLC
SK-MEL-2 melanoma = system: SK-MEL-2 melanoma
SK-OV-3 ovarian = system: SK-OV-3 ovarian
RPMI-8226 leukemia = system: RPMI-8226 leukemia
NCI-H522 lung = system: NCI-H522 lung
SNB-75 CNS = system: SNB-75 CNS
DU-145 prostate = system: DU-145 prostate
UACC-62 melanoma = system: UACC-62 melanoma
A498 renal = system: A498 renal
786-0 renal = system: 786-0 renal
LOX IMVI melanoma = system: LOX IMVI melanoma
MCF7 breast = system: MCF7 breast
IGROV1 ovarian = system: IGROV1 ovarian
BT-549 breast = system: BT-549 breast
SF-268 CNS = system: SF-268 CNS
NCI-H460 lung = system: NCI-H460 lung
NCI/ADR-RES ovarian = system: NCI/ADR-RES ovarian
HCT-15 colon = system: HCT-15 colon
OVCAR-3 ovarian = system: OVCAR-3 ovarian
RXF 393 renal = system: RXF 393 renal
M14 melanoma = system: M14 melanoma
TK-10 renal = system: TK-10 renal
K-562 leukemia = system: K-562 leukemia
OVCAR-4 ovarian = system: OVCAR-4 ovarian
MOLT-4 leukemia = system: MOLT-4 leukemia
EKVX NSCLC = system: EKVX NSCLC
SK-MEL-28 melanoma = system: SK-MEL-28 melanoma
HT29 colon = system: HT29 colon
UO-31 renal = system: UO-31 renal
PC-3 prostate = system: PC-3 prostate
SF-539 CNS = system: SF-539 CNS
ACHN renal = system: ACHN renal
SN12C renal = system: SN12C renal
SR leukemia = system: SR leukemia
NCI-H23 lung = system: NCI-H23 lung
NCI-H226 lung = system: NCI-H226 lung
U251 CNS = system: U251 CNS
SNB-19 CNS = system: SNB-19 CNS
KM12 colon = system: KM12 colon
HS 578T breast = system: HS 578T breast
CAKI-1 renal = system: CAKI-1 renal
SW-620 colon = system: SW-620 colon

Compound `N=C(N)c1ccc(-c2ccc(-c3cc(Cl)cc(Cl)c3)s2)nc1` has a GI50 (A549 NSCLC) of 2.07 µM, a TGI (A549 NSCLC) of 4.56 µM and a GI50 (OVCAR-5 ovarian) of 1.68 µM. For the same compound, the TGI (OVCAR-5 ovarian) was 3.05 µM, the GI50 (HL-60(TB) leukemia) was 2.12 µM and the TGI (HL-60(TB) leukemia) was 4.95 µM. For the same compound, the GI50 (T-47D breast) was 2.12 µM, the TGI (T-47D breast) was 4.99 µM and the GI50 (CCRF-CEM leukemia) was 2.39 µM. For the same compound, the TGI (CCRF-CEM leukemia) was 5.86 µM, the GI50 (HOP-92 NSCLC) was 3.43 µM and the TGI (HOP-92 NSCLC) was 19.4 µM. For the same compound, the GI50 (SK-MEL-2 melanoma) was 2.7 µM, the TGI (SK-MEL-2 melanoma) was 7.02 µM and the GI50 (SK-OV-3 ovarian) was 2.6 µM. It also gave a TGI (SK-OV-3 ovarian) of 8.15 µM, a GI50 (RPMI-8226 leukemia) of 2.31 µM and a TGI (RPMI-8226 leukemia) of 5.26 µM. The GI50 (NCI-H522 lung) was 2.16 µM, the TGI (NCI-H522 lung) was 4.73 µM and the GI50 (SNB-75 CNS) was 1.47 µM. For the same compound, the TGI (SNB-75 CNS) was 3.03 µM, the GI50 (DU-145 prostate) was 1.88 µM and the TGI (DU-145 prostate) was 3.33 µM.
For `CC(=O)NC(C(=O)N1CCCC1C(=O)O)C(C)C` (stereo not drawn) (Ac-Val-Pro-OH; configuration not given here), the GI50 (UACC-62 melanoma) was 22.4 µg/mL (≈ 87.5 µM), the TGI (UACC-62 melanoma) was 72.4 µg/mL and the GI50 (SNB-75 CNS) was 0.032 µg/mL. For the same compound, the TGI (SNB-75 CNS) was 66.7 µg/mL.
For `COc1ccc(C2C3=C(CCCC3=O)N(c3ccccc3)C3=C2C(=O)CCC3)cc1`, the TGI (A498 renal) was greater than 100 µM, the TGI (786-0 renal) was greater than 100 µM and the TGI (LOX IMVI melanoma) was greater than 100 µM. For the same compound, the TGI (A549 NSCLC) was greater than 100 µM, the TGI (OVCAR-5 ovarian) was greater than 100 µM and the TGI (MCF7 breast) was greater than 100 µM. The TGI (IGROV1 ovarian) was greater than 100 µM, the TGI (BT-549 breast) was greater than 100 µM and the TGI (HL-60(TB) leukemia) was greater than 100 µM. It also gave a TGI (SF-268 CNS) greater than 100 µM, a TGI (NCI-H460 lung) greater than 100 µM and a TGI (CCRF-CEM leukemia) greater than 100 µM. It also gave a TGI (NCI/ADR-RES ovarian) greater than 100 µM, a TGI (HOP-92 NSCLC) greater than 100 µM and a TGI (HCT-15 colon) greater than 100 µM. The TGI (OVCAR-3 ovarian) was greater than 100 µM, the TGI (RXF 393 renal) was 78.7 µM and the TGI (M14 melanoma) was greater than 100 µM. It also gave a TGI (TK-10 renal) greater than 100 µM, a TGI (K-562 leukemia) greater than 100 µM and a TGI (OVCAR-4 ovarian) greater than 100 µM. For the same compound, the TGI (SK-OV-3 ovarian) was greater than 100 µM, the TGI (UACC-62 melanoma) was greater than 100 µM and the TGI (RPMI-8226 leukemia) was greater than 100 µM. The TGI (MOLT-4 leukemia) was greater than 100 µM, the TGI (EKVX NSCLC) was greater than 100 µM and the TGI (SK-MEL-28 melanoma) was greater than 100 µM. For the same compound, the TGI (HT29 colon) was greater than 100 µM, the TGI (SNB-75 CNS) was greater than 100 µM and the TGI (UO-31 renal) was greater than 100 µM. For the same compound, the TGI (PC-3 prostate) was greater than 100 µM, the TGI (SF-539 CNS) was greater than 100 µM and the TGI (ACHN renal) was greater than 100 µM. The TGI (SN12C renal) was greater than 100 µM, the TGI (SR leukemia) was greater than 100 µM and the TGI (NCI-H23 lung) was greater than 100 µM. For the same compound, the TGI (NCI-H226 lung) was greater than 100 µM, the TGI (U251 CNS) was greater than 100 µM and the TGI (SNB-19 CNS) was greater than 100 µM. It also gave a TGI (KM12 colon) greater than 100 µM, a TGI (HS 578T breast) greater than 100 µM and a TGI (CAKI-1 renal) greater than 100 µM. The TGI (SW-620 colon) was greater than 100 µM.
